Test results from patent publication US10123993B2, “Cyclic ureas as inhibitors of rock” (BRISTOL-MYERS SQUIBB COMPANY, priority 2015, dated 2018).
Like-named read-outs stand apart in the source and are kept apart here.

Experiments:
[1] = tested on: spontaneously hypertensive rat, renal hypertensive rat and deoxycortisone acetate salt hypertensive rat models; details: cited from earlier work
[2] = tested on: Dahl salt-sensitive rats; details: rat, in vivo; cited from earlier work
[3] = tested on: neointimal formation in rats; details: cited from earlier work
[4] = target: ROCK2 (Homo sapiens, UniProt O75116); assay: ROCK2 kinase inhibition assay (Caliper LABCHIP, FITC peptide substrate); format: biochemical; details: 5 μM ATP, 1.5 μM peptide substrate; value ranges
Procedure, shortened: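 Dose-response curves gave IC50 from inhibition of peptide phosphorylation, measured by LabChip separation after EDTA stop. Reactions used 1.5 μM FITC-labelled peptide, 5 μM ATP, 20 mM HEPES pH 7.5 with MgCl2, Brij-35, DTT, and under 2% DMSO.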

[5] = tested on: rat stroke model; details: in vivo; cited from earlier work
[6] = tested on: IL-1 beta-induced coronary stenosis; details: long term treatment; cited from earlier work

ROCK2, sequence (O75116 whole entry, species assumed): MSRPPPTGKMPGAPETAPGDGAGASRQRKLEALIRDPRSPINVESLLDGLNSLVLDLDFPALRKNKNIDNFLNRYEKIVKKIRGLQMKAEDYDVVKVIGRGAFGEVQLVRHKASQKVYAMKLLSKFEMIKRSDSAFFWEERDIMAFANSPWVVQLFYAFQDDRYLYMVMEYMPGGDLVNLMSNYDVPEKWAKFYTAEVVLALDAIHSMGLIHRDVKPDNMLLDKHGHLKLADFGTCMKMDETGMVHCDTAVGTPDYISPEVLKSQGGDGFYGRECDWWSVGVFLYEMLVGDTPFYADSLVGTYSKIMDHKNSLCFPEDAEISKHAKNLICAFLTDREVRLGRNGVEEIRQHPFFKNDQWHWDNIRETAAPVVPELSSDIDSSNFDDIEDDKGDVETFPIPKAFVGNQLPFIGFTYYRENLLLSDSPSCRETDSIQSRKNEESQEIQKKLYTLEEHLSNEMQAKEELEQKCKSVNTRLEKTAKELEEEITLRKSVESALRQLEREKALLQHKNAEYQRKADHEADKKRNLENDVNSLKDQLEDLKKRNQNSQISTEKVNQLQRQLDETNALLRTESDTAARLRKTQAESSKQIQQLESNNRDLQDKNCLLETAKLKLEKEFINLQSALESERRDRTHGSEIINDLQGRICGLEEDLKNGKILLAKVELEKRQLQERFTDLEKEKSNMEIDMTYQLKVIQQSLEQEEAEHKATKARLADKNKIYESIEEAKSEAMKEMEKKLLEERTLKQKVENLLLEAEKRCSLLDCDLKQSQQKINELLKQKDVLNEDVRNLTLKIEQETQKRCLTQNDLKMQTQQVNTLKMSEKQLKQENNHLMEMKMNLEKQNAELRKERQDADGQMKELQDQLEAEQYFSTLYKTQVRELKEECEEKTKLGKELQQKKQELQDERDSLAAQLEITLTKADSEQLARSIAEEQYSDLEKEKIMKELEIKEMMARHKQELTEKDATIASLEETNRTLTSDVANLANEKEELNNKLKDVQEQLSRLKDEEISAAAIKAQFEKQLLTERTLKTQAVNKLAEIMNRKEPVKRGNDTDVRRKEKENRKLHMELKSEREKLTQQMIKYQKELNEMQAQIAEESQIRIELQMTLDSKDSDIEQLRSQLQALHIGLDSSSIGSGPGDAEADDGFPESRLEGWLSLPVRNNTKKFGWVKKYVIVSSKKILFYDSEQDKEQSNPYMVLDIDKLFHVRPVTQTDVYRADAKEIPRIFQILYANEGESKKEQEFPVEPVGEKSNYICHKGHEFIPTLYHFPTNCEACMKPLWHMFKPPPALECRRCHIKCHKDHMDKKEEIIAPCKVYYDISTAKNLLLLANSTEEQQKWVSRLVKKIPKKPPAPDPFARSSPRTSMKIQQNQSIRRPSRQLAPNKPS

For C[C@@H](N)[C@H]1CC[C@H](C(=O)Nc2ccncc2)CC1 [Example Y-27632], the blood pressure ([1]; control rats) is given as “only a minor effect on blood pressure”, the blood pressure ([1]; three rat models of hypertension) is given as “significantly decrease blood pressure” and the “ventricular hypertrophy, fibrosis and function” value [2] is given as “improve ventricular hypertrophy, fibrosis and function”. For the same molecule, the neointimal formation [3] was “inhibited neointimal formation”.

With COc1cccc(C(C)(C(N)=O)N2CCN(c3ccc(-c4cn[nH]c4)cc3)C2=O)c1 (centres unmarked) [compound 306, 2-(3-(4-(1H-pyrazol-4-yl)phenyl)-2-oxoimidazolidin-1-yl)-2-(3-methoxyphenyl)propanamide] the IC50 [4] was 20.1 to 200 nM.

For O=S(=O)(c1cccc2cnccc12)N1CCCNCC1 [fasudil], the “infarct size and neurologic deficit” value [5] is listed as “reduce both the infarct size and neurologic deficit”, the coronary constrictive remodeling [6] is listed as “promote a regression of coronary constrictive remodeling” and the coronary stenosis [6] is listed as “progressively reduce coronary stenosis”.
